Experimental data: patent US8466188B2, “Use of spiro-oxindole compounds as therapeutic agents” (Xenon Pharmaceuticals Inc., priority 2006, dated 2013)

Tests used:
sodium channel = experiment: Guanidine influx assay (14C-guanidine radiotracer flux) in a known cell line that expresses a sodium channel; type: cell-based, human or rat
Text: This example describes an in vitro assay for testing and profiling test agents against human or rat sodium channels stably expressed in cells of either an endogenous or recombinant origin.
The guanidine influx assay is a radiotracer flux assay used to determine ion flux activity of sodium channels in a high-throughput microplate-based format. The assay uses ^14C-guanidine hydrochloride in combination with various known sodium channel modulators, to assay the potency of test agents. Potency is determined by an IC50 calculation. Selectivity is determined by comparing potency of the compound for the channel of interest to its potency against other sodium channels (also called ‘selectivity profiling’).
Each of the test agents is assayed against cells that express the sodium channel of interest. Voltage gated sodium channels are either TTX sensitive or insensitive. This property is useful when evaluating the activities of a channel of interest when it resides in a mixed population with other sodium channels. The following Table 1 lists certain cell lines which are useful in screening for a certain sodium channel activity in the presence or absence of TTX.
It is also possible to employ recombinant cells expressing these sodium channels.
Cells expressing the channel of interest are grown according to the supplier or in the case of a recombinant cell in the presence of selective growth media such as G418 (Gibco/Invitrogen). The cells are disassociated from the culture dishes with an enzymatic solution (1×) Trypsin/EDTA (Gibco/Invitrogen) and analyzed for density and viability using haemocytometer (Neubauer). Disassociated cells are washed and resuspended in their culture media then plated into Scintiplates (Beckman Coulter Inc.) (approximately 100,000 cells/well) and incubated at 37° C./5% CO2 for 20-24 hours. After an extensive wash with Low sodium HEPES-buffered saline solution (LNHBSS) (150 mM Choline Chloride, […] (Sigma), 1 mM Calcium Chloride, 5 mM Potassium Chloride, 1 mM Magnesium Chloride, 10 mM Glucose) agents diluted with LNHBSS are added to each well. (Varying concentrations of test agent may be used). The activation/radiolabel mixture contains aconitine (Sigma), and ^14C-guanidine hydrochloride (ARC).
After loading the cells with test agent and activation/radiolabel mixture, the Scintiplates are incubated at ambient temperature. Following the incubation, the Scintplates are extensively washed with LNHBSS supplemented with guanidine (Sigma). The Scintiplates are dried and then counted using a Wallac MicroBeta TriLux (Perkin-Elmer Life Sciences). The ability of the test agent to block sodium channel activity is determined by comparing the amount of ^14C-guanidine present inside the cells expressing the different sodium channels.
IC50 value of a test agent for a specific sodium channel may be determined using the above general method. […] The IC50 curve is calculated using the 4 Parameter Logistic Model or Sigmoidal Dose-Response Model formula (fit=(A+((B−A)/(1+((C/x)^D)))).
The fold selectivity, factor of selectivity or multiple of selectivity, is calculated by dividing the IC50 value of the test sodium channel by the reference sodium channel, for example, Nav1.5.
The Example numbers provided in Table 2 correspond to the Example numbers herein: […]

Nav1.2 in PC12 cells = Nav1.2 in PC12 cells (Rattus norvegicus, UniProt P04775)
[1] = test system: Nav1.4 and 1.5 in L6 cells; type: cell-based, rat
Nav1.4 in CHO-K1 cells = type: cell-based, Chinese hamster
[2] = test system: Nav1.8 in SK-N-BE2C cells; type: cell-based, human

Nav1.2 in PC12 cells, sequence (P04775 whole entry, looked up): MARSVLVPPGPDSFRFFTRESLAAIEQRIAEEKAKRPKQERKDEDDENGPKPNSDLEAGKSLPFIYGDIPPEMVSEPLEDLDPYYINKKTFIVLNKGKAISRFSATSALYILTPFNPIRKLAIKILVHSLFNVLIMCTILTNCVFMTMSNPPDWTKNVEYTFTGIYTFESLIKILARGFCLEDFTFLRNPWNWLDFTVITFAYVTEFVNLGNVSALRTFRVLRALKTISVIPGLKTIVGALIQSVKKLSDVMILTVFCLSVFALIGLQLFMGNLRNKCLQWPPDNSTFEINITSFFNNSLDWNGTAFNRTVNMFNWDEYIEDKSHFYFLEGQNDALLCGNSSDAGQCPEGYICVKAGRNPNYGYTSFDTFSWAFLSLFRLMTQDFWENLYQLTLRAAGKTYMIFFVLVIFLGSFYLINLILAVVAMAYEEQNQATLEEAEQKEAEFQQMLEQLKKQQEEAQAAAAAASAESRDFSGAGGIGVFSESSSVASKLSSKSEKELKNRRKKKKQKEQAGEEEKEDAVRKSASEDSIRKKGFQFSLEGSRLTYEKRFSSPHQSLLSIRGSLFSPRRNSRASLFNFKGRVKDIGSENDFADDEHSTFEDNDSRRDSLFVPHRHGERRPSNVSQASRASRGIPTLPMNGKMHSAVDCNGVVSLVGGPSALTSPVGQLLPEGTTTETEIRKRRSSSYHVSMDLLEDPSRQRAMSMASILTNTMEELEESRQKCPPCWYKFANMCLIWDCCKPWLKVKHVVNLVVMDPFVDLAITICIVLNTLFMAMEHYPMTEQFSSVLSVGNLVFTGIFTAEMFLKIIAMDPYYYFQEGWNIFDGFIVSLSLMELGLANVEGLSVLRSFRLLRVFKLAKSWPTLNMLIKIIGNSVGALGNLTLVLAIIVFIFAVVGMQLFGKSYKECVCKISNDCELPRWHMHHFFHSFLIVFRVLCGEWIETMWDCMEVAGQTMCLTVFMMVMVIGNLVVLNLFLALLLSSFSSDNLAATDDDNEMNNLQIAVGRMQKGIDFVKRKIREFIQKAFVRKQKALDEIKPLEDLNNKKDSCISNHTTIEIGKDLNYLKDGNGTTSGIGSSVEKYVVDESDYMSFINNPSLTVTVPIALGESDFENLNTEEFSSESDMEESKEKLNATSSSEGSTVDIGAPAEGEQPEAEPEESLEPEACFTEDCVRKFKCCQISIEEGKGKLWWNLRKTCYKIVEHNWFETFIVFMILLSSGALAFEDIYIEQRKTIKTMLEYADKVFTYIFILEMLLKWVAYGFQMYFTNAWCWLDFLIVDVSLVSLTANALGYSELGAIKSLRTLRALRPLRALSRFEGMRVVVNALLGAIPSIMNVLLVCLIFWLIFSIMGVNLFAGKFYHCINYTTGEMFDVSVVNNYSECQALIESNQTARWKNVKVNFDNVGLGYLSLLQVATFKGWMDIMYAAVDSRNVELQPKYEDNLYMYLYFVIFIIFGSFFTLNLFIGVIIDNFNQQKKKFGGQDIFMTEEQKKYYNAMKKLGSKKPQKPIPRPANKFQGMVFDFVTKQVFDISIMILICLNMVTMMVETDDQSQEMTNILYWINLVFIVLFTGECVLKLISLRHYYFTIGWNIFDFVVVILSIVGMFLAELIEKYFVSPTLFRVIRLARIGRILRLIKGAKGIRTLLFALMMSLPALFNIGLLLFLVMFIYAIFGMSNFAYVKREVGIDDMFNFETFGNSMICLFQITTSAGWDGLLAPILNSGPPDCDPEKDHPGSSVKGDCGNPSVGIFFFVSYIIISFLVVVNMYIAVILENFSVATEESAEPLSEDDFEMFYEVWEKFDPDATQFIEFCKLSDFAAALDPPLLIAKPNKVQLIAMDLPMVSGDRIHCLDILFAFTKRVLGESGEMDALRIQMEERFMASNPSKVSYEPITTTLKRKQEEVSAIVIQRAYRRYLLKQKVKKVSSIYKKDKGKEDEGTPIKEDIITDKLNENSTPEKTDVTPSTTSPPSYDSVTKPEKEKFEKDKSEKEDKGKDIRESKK

## CCCCCN1C(=O)C2(COc3cc(-c4ccncc4)ccc32)c2ccccc21 (stereo not shown) [Example 38, 1′-pentyl-6-pyridin-4-ylspiro[1-benzofuran-3,3′-indol]-2′(1′H)-one]
Sodium channel
  IC50: 100 to 1000 nM
other
  melting point: 107 to 110 °C

## NC1=N[C@H](O)[C@H]2[C@H]3O[C@]4(O)O[C@@H]([C@@H](O)[C@@]2(N1)[C@@H]4O)[C@]3(O)CO [TTX]
Nav1.2 in PC12 cells
  block of [14C] Guanidine influx by TTX: Guanidine influx was completely
[1]
  block of [14C] Guanidine influx by TTX: partially blocked by TTX (Nav1.5
Nav1.4 in CHO-K1 cells
  block of [14C] Guanidine influx by TTX: Guanidine influx was completely
[2]
  block of [14C] Guanidine influx by TTX: TTX partially blocked influx

## O=C1N(CCC2CC2)c2ccccc2C12COc1cc3c(cc12)OCO3 (stereo not shown) [Example 1, 1′-(2-cyclopropylethyl)spiro[furo[2,3-f][1,3]benzodioxole-7,3′-indol]-2′(1′H)-one]
Sodium channel
  IC50: 1 to 10 nM
other
  melting point: 125 to 127 °C

## CCCCCN1C(=O)C2(OCc3cc4c(cc32)OCO4)c2ccccc21 (stereo not shown) [Example 20, 1′-pentyl-7H-spiro[furo[3,4-f][1,3]benzodioxole-5,3′-indol]-2′(1′H)-one]
Sodium channel
  IC50: 1 to 10 nM
other
  melting point: 113 to 115 °C

## CCCCCN1C(=O)C2(COc3ccc(-c4cncnc4)cc32)c2ccccc21 (stereo not shown) [Example 49, 1′-pentyl-5-pyrimidin-5-ylspiro[1-benzofuran-3,3′-indol]-2′(1′H)-one]
Sodium channel
  IC50: 100 to 1000 nM
other
  melting point: 115 to 117 °C

## CCCCCN1C(=O)C2(COc3cc4c(cc32)OCO4)c2c(C#N)cccc21 (stereo not shown) [Example 30, 2′-oxo-1′-pentyl-1′,2′-dihydrospiro[furo[2,3-f][1,3]benzodioxole-7,3′-indole]-4′-carbonitrile]
Sodium channel
  IC50: 10 to 100 nM
other
  melting point: 128 to 129 °C

## O=C(NCCN1C(=O)C2(COc3cc4c(cc32)OCO4)c2ccccc21)c1ccccc1OC(F)(F)F (stereo not shown) [Example 59, N-[2-(2′-oxospiro[furo[2,3-f][1,3]benzodioxole-7,3′-indol]-1′(2′H)-yl)ethyl]-2-(trifluoromethoxy)benzamide]
Sodium channel
  IC50: 100 to 1000 nM
other
  melting point: 183 to 184 °C

## O=C1N(C(c2ccccc2)c2ccccc2)c2ccccc2C12COc1ccc(-c3cccnc3)cc12 (stereo not shown) [Example 54, 1′-(diphenylmethyl)-5-pyridin-3-ylspiro[1-benzofuran-3,3′-indol]-2′(1′H)-one]
Sodium channel
  IC50: > 1000 nM
other
  melting point: 204 to 207 °C

## O=C(CN1C(=O)C2(COc3ccc(-c4cccnc4)cc32)c2ccccc21)Nc1ccccc1F (stereo not shown) [Example 52, N-(2-fluorophenyl)-2-(2′-oxo-5-pyridin-3-ylspiro[1-benzofuran-3,3′-indol]-1′(2′H)-yl)acetamide]
Sodium channel
  IC50: 100 to 1000 nM
other
  melting point: 98 to 100 °C

## CC(C)(C)OC(=O)N1CCCC(c2ccc3c(c2)C2(CO3)C(=O)Nc3ccccc32)C1 (stereo not shown) [Example 55, tert-butyl 3-(2′-oxo-1′,2′-dihydrospiro[1-benzofuran-3,3′-indol]-5-yl)piperidine-1-carboxylate]
Sodium channel
  IC50: > 1000 nM
other
  melting point: 120 to 123 °C

## CCCCCN1C(=O)C2(CC(O)c3cc4c(cc32)OCO4)c2ccccc21 (stereo not shown) [Example 26, 7-hydroxy-1′-pentyl-6,7-dihydrospiro[indeno[5,6-d][1,3]dioxole-5,3′-indol]-2′(1′H)-one]
Sodium channel
  IC50: > 1000 nM

## O=C1N(CCCNCC2CC2)c2ccccc2C12COc1cc3c(cc12)OCO3 (stereo not shown) [Example 15, 1′-{3-[(cyclopropylmethyl)amino]propyl}spiro[furo[2,3-f][1,3]benzodioxole-7,3′-indol]-2′(1′H)-one]
Sodium channel
  IC50: > 1000 nM

## O=C(O)c1ccc(CN2C(=O)C3(COc4cc5c(cc43)OCO5)c3ccccc32)cc1 (stereo not shown) [Example 11, 4-[(2′-oxospiro[furo[2,3-f][1,3]benzodioxole-7,3′-indol]-1′(2′H)-yl)methyl]benzoic acid]
Sodium channel
  IC50: > 1000 nM
